Measurements taken from patent publication US20100184094A1, “USE OF MDCK CELLS IN THE EVALUATION OF CHOLESTEROL MODULATORS” (priority 2007, published 2010).

What was measured:
dog NPC1L1 = dog NPC1L1 (Canis lupus familiaris, UniProt A0A8I3RZG1); assay: [3H]AS binding to dog NPC1L1 transiently expressed in TsA201 cells; settings: for IC50: 4.65 nM [3H]AS, 4 h, 37° C., read-out: IC50 inhibition of [3H]AS binding; for Ki: dog NPC1L1/TsA201 cells, read-out: Ki (competition with [3H]AS)
Experimental: (§1) rNPC1L1/HEK293 and TsA201 cells were seeded at a density of 10,000 cells per well in 96-well poly-D-lysine coated plates and cells were allowed to attach for approximately 18 h at 37° C. TsA201 cells were subsequently transfected with dog NPC1L1/pcDNA5/FRT according to the manufacturer's instructions (Roche) and incubated for 3 days at 37° C. MDCKII-derived, LLC-PKI, HepG2, or CaCo-2 cells were seeded at a density of 25,000 cells per well in 96-well tissue culture treated plates, and cells were allowed to attach and differentiate for approximately 72 h at 37° C., except for CaCo-2 cells where differentiation took approximately 14 days at 37° C. […] Duplicate samples were averaged for each experimental point. […] Dissociation kinetics were determined by addition of 100 μM EZE-gluc, and incubating for different periods of time. Nonspecific binding was defined in the presence of 100 μM EZE-gluc. At the end of the incubation period, cells were washed twice with 200 μl of pre-warmed DMEM to separate bound from free ligand, 1% SDS was added to the wells followed by 5 ml of Scintillant, and radioactivity associated with cells was determined using a β-counter. […] Thereafter, plates were placed on ice and cells were washed twice with ice-cold PBS, followed by ice-cold acid wash with DMEM, pH 3.5, for 1, 5 or 15 minutes. […] For Transwell experiments, MDCKII cells were seeded at 200,000 cells/well in a 24-well plate and incubated for 3 days at 37° C. […] Thereafter, both apical and basolateral compartments were washed three times with PBS, and the Transwell filter was cut out and its associated radioactivity determined using afi-counter. Data from saturation, competition and ligand dissociation experiments were analyzed as described in the literature; see, Priest, et al., 2004 Biochemistry 43:9866-9876; Knaus et al., 1995 Biochemistry 34:13627-13634. The association rate, k1, was determined by employing the pseudo-first-order rate equation k1=kobs([LR]e/[L][LR]max)) where [LR]max is the concentration of the complex at equilibrium, [L] is the concentration of ligand, [LR]max is the total receptor concentration, kobs is the slope of the pseudo-first order plot, ln([LR]e/([LR]e−[LR]t)) versus time, and [LR]t is the receptor-ligand complex at one given time point t.
To further validate this statement, cloned dog NPC1L1 was transiently expressed in TsA201 cells and binding of [^3]AS to these cells was then characterized (FIG. 5 and Table 1).

human NPC1L1 = target: T1, human NPC1L1 (Homo sapiens, UniProt Q9UHC9); assay: [3H]AS binding to hNPC1L1/MDCKII-Flp cells; settings: FIG. 7D, read-out: Ki inhibition of [3H]AS binding
T1 construct: expressed in transfected cells
T1 sequence (Q9UHC9 22-1359): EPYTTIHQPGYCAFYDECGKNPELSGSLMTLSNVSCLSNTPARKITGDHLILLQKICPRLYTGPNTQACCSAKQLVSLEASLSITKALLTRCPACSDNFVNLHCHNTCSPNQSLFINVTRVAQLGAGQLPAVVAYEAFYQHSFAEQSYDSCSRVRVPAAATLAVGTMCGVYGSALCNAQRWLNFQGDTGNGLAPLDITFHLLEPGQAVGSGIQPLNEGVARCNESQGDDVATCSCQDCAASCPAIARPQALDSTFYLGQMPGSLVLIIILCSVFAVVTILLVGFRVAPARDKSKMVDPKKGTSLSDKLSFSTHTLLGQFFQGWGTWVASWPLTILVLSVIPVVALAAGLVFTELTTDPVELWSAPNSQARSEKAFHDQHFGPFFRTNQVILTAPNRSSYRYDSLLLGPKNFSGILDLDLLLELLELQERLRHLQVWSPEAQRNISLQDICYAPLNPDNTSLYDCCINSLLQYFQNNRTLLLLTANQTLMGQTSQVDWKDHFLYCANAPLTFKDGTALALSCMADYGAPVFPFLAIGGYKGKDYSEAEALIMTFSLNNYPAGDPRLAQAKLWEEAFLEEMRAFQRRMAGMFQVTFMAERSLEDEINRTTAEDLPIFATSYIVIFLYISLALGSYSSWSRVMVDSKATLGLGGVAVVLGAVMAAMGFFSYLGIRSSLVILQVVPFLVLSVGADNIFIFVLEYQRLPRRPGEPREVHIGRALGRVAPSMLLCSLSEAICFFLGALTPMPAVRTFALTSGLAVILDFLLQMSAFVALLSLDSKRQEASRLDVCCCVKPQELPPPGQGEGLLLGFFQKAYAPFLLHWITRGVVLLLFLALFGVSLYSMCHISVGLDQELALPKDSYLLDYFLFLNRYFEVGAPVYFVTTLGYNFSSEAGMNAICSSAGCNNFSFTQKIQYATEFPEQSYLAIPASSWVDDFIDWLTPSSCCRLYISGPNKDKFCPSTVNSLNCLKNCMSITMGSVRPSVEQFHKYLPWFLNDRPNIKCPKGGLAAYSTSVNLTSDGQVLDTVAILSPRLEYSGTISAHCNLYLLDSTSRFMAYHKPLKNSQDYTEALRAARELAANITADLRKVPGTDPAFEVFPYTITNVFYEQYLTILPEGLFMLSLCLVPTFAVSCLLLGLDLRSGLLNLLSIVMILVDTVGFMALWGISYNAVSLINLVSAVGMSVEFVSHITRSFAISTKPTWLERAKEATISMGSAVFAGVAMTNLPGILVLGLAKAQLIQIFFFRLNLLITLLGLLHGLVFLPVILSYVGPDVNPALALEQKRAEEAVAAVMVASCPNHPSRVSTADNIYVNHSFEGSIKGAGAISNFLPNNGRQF
Experimental: as §1
To validate MDCKII cells as an appropriate surrogate system for monitoring NPC1L1-dependent processes, we evaluated their ability to perform EZE-sensitive cholesterol flux using a similar protocol to that recently reported. This assay makes use of the ability of βmCD to deplete membrane-bound cholesterol. […]
To further characterize the [^3H] cholesterol influx process into MDCK cells, the potency of EZE-like compound PS for inhibiting [^3H] cholesterol uptake was determined.

[1] = target: dog NPC1L1 endogenously expressed in MDCKII cells (Canis lupus familiaris, UniProt A0A8I3RZG1); assay: [3H]AS binding to MDCKII cells (saturation, kinetics, competition, acid wash); settings: for IC50: 5.49 nM [3H]AS, 4 h, 37° C., read-out: IC50 inhibition of [3H]AS binding; for Ki: MDCKII cells
Sequence of dog NPC1L1 endogenously expressed in MDCKII cells (A0A8I3RZG1 entry or part of it): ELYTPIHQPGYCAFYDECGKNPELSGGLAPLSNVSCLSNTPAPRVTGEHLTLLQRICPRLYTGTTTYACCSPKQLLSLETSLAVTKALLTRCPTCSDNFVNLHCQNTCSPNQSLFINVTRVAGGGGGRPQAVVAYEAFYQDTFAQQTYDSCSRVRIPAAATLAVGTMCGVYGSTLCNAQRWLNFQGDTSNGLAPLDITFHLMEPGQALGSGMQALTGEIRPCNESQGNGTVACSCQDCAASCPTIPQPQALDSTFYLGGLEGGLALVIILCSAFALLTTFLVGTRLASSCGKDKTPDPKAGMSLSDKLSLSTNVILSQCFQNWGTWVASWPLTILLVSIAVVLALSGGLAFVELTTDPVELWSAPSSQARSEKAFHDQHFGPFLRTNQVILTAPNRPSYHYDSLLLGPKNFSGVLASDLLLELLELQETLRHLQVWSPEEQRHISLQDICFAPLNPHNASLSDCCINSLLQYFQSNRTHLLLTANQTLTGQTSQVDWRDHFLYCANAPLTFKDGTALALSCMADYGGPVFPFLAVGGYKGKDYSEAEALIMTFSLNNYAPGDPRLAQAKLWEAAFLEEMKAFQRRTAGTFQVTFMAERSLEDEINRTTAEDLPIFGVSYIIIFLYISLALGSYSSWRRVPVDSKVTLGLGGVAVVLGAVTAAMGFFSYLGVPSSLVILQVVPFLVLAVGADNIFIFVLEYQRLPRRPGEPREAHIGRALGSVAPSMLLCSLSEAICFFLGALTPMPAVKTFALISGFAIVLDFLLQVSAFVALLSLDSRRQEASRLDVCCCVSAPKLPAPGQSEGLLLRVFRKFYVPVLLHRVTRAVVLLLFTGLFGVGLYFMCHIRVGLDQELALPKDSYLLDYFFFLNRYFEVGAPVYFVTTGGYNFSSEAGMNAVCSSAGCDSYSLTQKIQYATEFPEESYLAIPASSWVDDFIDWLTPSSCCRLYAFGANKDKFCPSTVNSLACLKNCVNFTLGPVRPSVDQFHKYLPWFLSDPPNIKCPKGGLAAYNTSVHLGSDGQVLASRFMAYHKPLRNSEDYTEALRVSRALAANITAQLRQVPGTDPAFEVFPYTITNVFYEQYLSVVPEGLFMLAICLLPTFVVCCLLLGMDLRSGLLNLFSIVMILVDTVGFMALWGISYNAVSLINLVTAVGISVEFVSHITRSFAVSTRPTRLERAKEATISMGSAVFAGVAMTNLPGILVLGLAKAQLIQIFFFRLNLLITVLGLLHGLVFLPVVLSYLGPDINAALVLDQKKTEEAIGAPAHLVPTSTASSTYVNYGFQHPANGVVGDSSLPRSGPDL
Experimental: as §1

Sequence of dog NPC1L1 (A0A8I3RZG1 entry or part of it): as above

Structure (SMILES)	IC50 (dog NPC1L1) [nM]	Ki (dog NPC1L1) [nM]	Ki (human NPC1L1) [nM]	IC50 [1] [nM]	Ki [1] [nM]	fold weaker than AS and PS as inhibitor of [3H]AS binding ([1]; MDCK cells) [fold]
COC(=O)[C@H]1O[C@@H](Oc2ccc([C@@H]3[C@@H](CC[C@H](O)c4ccc(F)cc4)C(=O)N3c3ccc(C#CCNS(C)(=O)=O)cc3)cc2)[C@H](O)[C@@H](O)[C@@H]1O [PS, 4-[(2S,3R)-3-[(3S)-3-(4-fluorophenyl)-3-hydroxypropyl]-1-(4-{3-[(methylsulfonyl)amino]prop-1-yn-1-yl}phenyl)-4-oxoazetidin-2-yl]phenyl methyl-β-D-glucopyranosiduronate]	3.73	0.97 ± 0.08	5	3.02	0.33 ± 0.05	–
O=C(O)[C@H]1O[C@@H](Oc2ccc([C@@H]3[C@@H](CC[C@H](O)c4ccc(F)cc4)C(=O)N3c3ccc(F)cc3)cc2)[C@H](O)[C@@H](O)[C@@H]1O [EZE-gluc, ezetimibe glucuronide]	27	5.51 ± 1.52	209	24	3.51 ± 0.89	~10
O=C1[C@H](CC[C@H](O)c2ccc(F)cc2)[C@@H](c2ccc(O)cc2)N1c1ccc(F)cc1 [EZE, Ezetimibe]	111	21.5 ± 7.56	1300	126	14 ± 4.11	–
